Earlier results as cited in US8137397B2, “Medical devices” (Boston Scientific Scimed, Inc., priority 2004, dated 2012).

Settings: at about room temperature, i.e., about 25° C.; for solubility: in water

solubility	Structure (SMILES)	solubility in water (in words)
about 0.18 gram/mL of water	OC[C@@H](O)[C@@H](O)[C@H](O)[C@H](O)CO [Mannitol, mannitol]	–
–	O=C(CO)[C@H](O)[C@@H](O)[C@H](O)CO [Sorbose, sorbose]	freely soluble in water
about 2 gram/mL of water	OC[C@H]1O[C@@](CO)(O[C@H]2O[C@H](CO)[C@@H](O)[C@H](O)[C@H]2O)[C@@H](O)[C@@H]1O [Sucrose, sucrose]	–

Structure (SMILES)	solubility	solubility in water (in words)
[Cl-].[K+] [Potassium chloride, potassium chloride]	about 0.36 gram/mL of water	–
